Values after ≈ are worked out from the molar mass of the structure shown.
What was measured:
[1] = system: Enterococcus faecium CIP 5855; test: Minimum bactericidal concentration, first method (30 min contact), E. faecium; type: cell-based; conditions: CIP5855, 0.5 h, contact time 30 minutes
Source text: (§1) In the two methods, a bacterial inoculum is brought into contact with different dilutions of the product for a determined period of time.
(§2) When the contact period has ended, an aliquot of the mixture of bacterial suspension and product is taken and brought into contact with an agent for neutralizing the bacterial activity of the mixture, either in a solid medium or in a liquid medium. The bactericidal activity of the product, expressed either as a concentration or as a percentage of active principle, corresponds to an absence of bacterial growth.
(§3) The first method makes it possible to define a minimum bactericidal concentration (MBC) or minimum fungicidal concentration (MFC), expressed in μg/ml. The contact time between product and bacterial suspension is 30 minutes. The neutralizer is included in agar.
(§4) The CIP bacterial strains chosen for the study, which are available from the Institut Pasteur, are:
(§5) The strains are maintained on Tryptic Soy Agar® (TSA) marketed by Difco.
(§6) After 24 hours of culture at 37° C., the microbial growth is harvested with the aid of glass beads and 10 ml of diluent containing 1 g of tryptone and 8.5 g of sodium chloride in 1000 ml of distilled water. The suspension formed is shaken and the percentage transmission of light at 620 nm is measured in a spectrophotometer:
(§7) The bacterial inoculum corresponds to a 1:20 dilution of this bacterial suspension.
(§8) Plates containing cupules receive different dilutions of the test product. These dilutions of the test product are brought into contact with the different bacterial suspensions using a multiple site inoculator. After a contact time of 30 minutes, aliquots are transferred with this inoculator to the surface of an agar medium (TSA) placed in Petri dishes containing an activity neutralizer, namely 20 g of lubrol W, 2.5 g of Tween 80, 2.5 g of sodium thiosulfate and 1% of egg yolk in 1000 ml of TSA (Difco). A control for the efficacy of the neutralizer is prepared for each test product by depositing an aliquot of the dilution of the test product on the surface of the culture medium. After drying, the corresponding inoculum is deposited in the same place. An inoculum control is prepared on agar medium with and without neutralizer. The results are read off after 48 hours of incubation at 37° C.
(§9) They indicate the minimum bactericidal concentrations (MBC) for strains 1, 2, 3 and 4 and the minimum fungicidal concentrations (MFC) for strain 5.

[2] = system: Staphylococcus aureus CIP 53154; test: Percentage of bactericidal active principle, second method (5 min contact), S. aureus; type: cell-based; conditions: destruction of 99.99%
Source text: as §1, §2
(§10) The second method makes it possible to define a percentage of bactericidal or fungicidal active principle by means of a simplified and automated adaptation of Afnor standards NF T 72-150 and NF T 72-170. In this method, the bactericidal activity of the product is determined with and without interfering substances. It is based on assessing the destruction of 99.99% of the initial bacteria by the product in 5 minutes. The interfering substances are of the protein type and are chosen for the actual conditions of application of this type of product. The contact time between product and bacterial suspension is 5 minutes, the neutralization step is 10 minutes and subculture is effected in a liquid medium.
(§11) The chosen bacterial strains are:
(§12) 1. Staphylococcus aureus
as §5
(§13) The strains are harvested in a manner identical to the first method; these suspensions contain between 1.10^8 and 3.10^8 cells per milliliter. Appropriate dilutions make it possible to have a suspension containing 2 to 6.10^3 cells per milliliter.
(§14) The experiment is performed in microtiter plates; it comprises two steps. The first step, called the preliminary test, checks that the product is indeed neutralized. In the test proper, the different dilutions of the product are brought into contact with 2 to 6.10^3 cells per milliliter of the bacterial suspension in the second row of the microtiter plate. After a contact time of 5 minutes, an aliquot is transferred to the third row containing the neutralizer adapted to the product and to the strain. After a contact time of 10 minutes, aliquots are transferred to the last 5 rows containing Tryptic Soy Broth® (TSB) from Difco.
(§15) The interfering substances tested are a mixture of albumin and yeast extract. In the first row of the microplate, these proteins are brought into contact for 5 minutes with the different dilutions of the product. After this step, the same principle as above is applied: 5 minutes of contact with the germ, 10 minutes of contact with the neutralizer, transfer to TSB.

[3] = system: Enterococcus faecium CIP 5855; test: Percentage of bactericidal active principle, second method (5 min contact), E. faecium; type: cell-based; conditions: destruction of 99.99%
Source text: as §1, §2, §10, §11, §5, §13, §14, §15

[4] = system: Escherichia coli CIP 54127; test: Minimum bactericidal concentration, first method (30 min contact), E. coli; type: cell-based; conditions: CIP54127, 0.5 h, contact time 30 minutes
Source text: as §1, §2, §3, §4
(§16) 3. Escherichia coli CIP 54127
as §5, §6, §7, §8, §9

[5] = system: Pseudomonas aeruginosa CIP A22; test: Minimum bactericidal concentration, first method (30 min contact), P. aeruginosa; type: cell-based; conditions: CIPA22, 0.5 h, contact time 30 minutes
Source text: as §1, §2, §3, §4
4. Psuedomonas aeruginosa
as §5, §6, §7, §8, §9

[6] = system: Pseudomonas aeruginosa CIP A22; test: Percentage of bactericidal active principle, second method (5 min contact), P. aeruginosa; type: cell-based; conditions: destruction of 99.99%
Source text: as §1, §2, §10, §11
4. Pseudomonas aeruginosa
as §5, §13, §14, §15

[7] = system: Staphylococcus aureus CIP 53154; test: Minimum bactericidal concentration, first method (30 min contact), S. aureus; type: cell-based; conditions: CIP53154, 0.5 h, contact time 30 minutes
Source text: as §1, §2, §3, §4, §12, §5, §6, §7, §8, §9

[8] = system: Candida albicans CIP 1180; test: Minimum fungicidal concentration, first method (30 min contact), C. albicans; type: cell-based; conditions: CIP1180, 0.5 h, contact time 30 minutes
Source text: as §1, §2, §3, §8
The antifungal activity of the products according to the invention was also determined using the method described above. A representative strain of yeast was selected for the study: Candida albicans CIP 1180 (strain 5).
This is maintained on Sabouraud's Dextrose Agar marketed by Difco. The technique is identical to that described for studying the antibacterial activity. After 48 hours of culture at 37° C., the microbial growth is harvested with the aid of glass beads and 5 ml of diluent containing 1 g of tryptone and 8.5 g of sodium chloride in 1000 ml of distilled water; a further 5 ml of the diluent are then added. This suspension gives a percentage transmission of light at 620 nm of 2 to 3% in a spectrophotometer.
The inoculum corresponds to a 1:10 dilution of this microbial suspension. A 1:100 dilution of this suspension, observed between slide and cover glass through a No. 40 microscope objective, must show 10 cells per field, which corresponds to 1,000,000 yeasts per ml.
as §9

[9] = system: Candida albicans CIP 1180; test: Percentage of fungicidal active principle, second method (5 min contact), C. albicans; type: cell-based
Source text: as §1, §2, §10, §14, §15
The antifungal activity of the products according to the invention was also determined with and without interfering substances using the method described above. The same strain was used as for the first technique, namely Candida albicans CIP 1180. It is harvested in an identical manner to that described in the first method.

[10] = system: Escherichia coli CIP 54127; test: Percentage of bactericidal active principle, second method (5 min contact), E. coli; type: cell-based; conditions: destruction of 99.99%
Source text: as §1, §2, §10, §11, §16, §5, §13, §14, §15

[11] = system: Mycobacterium smegmatis CIP 7326; test: Percentage of bactericidal active principle, second method (5 min contact), M. smegmatis; type: cell-based; conditions: destruction of 99.99%
Source text: as §1, §2, §10, §11
5. Mycobacterium smegmatis
as §5, §13, §14, §15

Product solubility = conditions: water
[12] = Simple: without interfering substances, * activity limited to the zone indicated
[13] = with proteins as interfering substances
[14] = Simple: without interfering substances

Row | solubility (Product solubility) | SMILES | MBC [1] | Bactericidal activity, results in percentage of active principle, S. aureus [2, 12] | Bactericidal activity, results in percentage of active principle, S. aureus [2, 13] | Bactericidal activity, results in percentage of active principle, E. faecium [3, 14] | Bactericidal activity, results in percentage of active principle, E. faecium [3, 13] | MBC [4] | MBC [5] | Bactericidal activity, results in percentage of active principle, P. aeruginosa [6, 14] | Bactericidal activity, results in percentage of active principle, P. aeruginosa [6, 13] | MBC [7] | MFC [8] | Fungicidal activity, results in percentage of active principle, C. albicans [9, 14] | Fungicidal activity, results in percentage of active principle, C. albicans [9, 13] | Bactericidal activity, results in percentage of active principle, E. coli [10, 14] | Bactericidal activity, results in percentage of active principle, E. coli [10, 13] | Bactericidal activity, results in percentage of active principle, M. smegmatis [11, 12] | Bactericidal activity, results in percentage of active principle, M. smegmatis [11, 13]
1 | – | CCCCCCCCCCCC(=O)NCCN1CCC(Cc2ccccc2)CC1.Cl [SR 44944 A, N-[2-(4-Benzylpiperidino)ethyl]lauramide hydrochloride] | 10 µg/mL | < 0.01 percentage of active principle | 0.1 percentage of active principle | < 0.01 percentage of active principle | 0.03 percentage of active principle | 10 µg/mL | 50 µg/mL | < 0.01 percentage of active principle | 0.25 percentage of active principle | 10 µg/mL | 10 µg/mL | 0.01 percentage of active principle | 0.06 percentage of active principle | 0.01 percentage of active principle | < 0.01 percentage of active principle | > 0.5 percentage of active principle | 0.06 percentage of active principle
2 | > 50 mg/mL | CCCCCCCCCCCC(=O)NCCN(C)Cc1ccccc1 [SR 45525] | 10 µg/mL (≈ 28.9 µM) | 0.05 percentage of active principle | 0.5 percentage of active principle | 0.01 percentage of active principle | 0.5 percentage of active principle | 10 µg/mL (≈ 28.9 µM) | 50 µg/mL (≈ 144 µM) | 0.005 percentage of active principle | 0.5 percentage of active principle | 50 µg/mL (≈ 144 µM) | 50 µg/mL (≈ 144 µM) | 0.05 percentage of active principle | 0.5 percentage of active principle | 0.005 percentage of active principle | 0.1 percentage of active principle | – | 0.1 percentage of active principle

Reference: patent US5068064A, “N-substituted lauramides, their preparation and compositions in which they are present” (Sanofi, priority 1989, dated 1991)
